Measurements taken from patent US20240287123A1 (Victoria Link Limited, priority 2021, published 2024).
Like-named read-outs stand apart in the source and are kept apart here.

Tested on: HCMV (AD169 strain in HFF cells)
Assay: CPE (cytopathic effect) assay for HCMV
Assay type: cell-based, Human Cytomegalovirus
Experimental: Human foreskin fibroblast (HFF) cells prepared from human foreskin tissue were obtained from the University of Alabama at Birmingham tissue procurement facility with approval from its IRB. The tissue was incubated at 4° C. for 4 h in Clinical Medium consisting of minimum essential media (MEM) with Earl's salts supplemented with 10% fetal bovine serum (FBS) (Hyclone, Inc. Logan UT), L-glutamine, fungizone, and vancomycin. Tissue was then placed in phosphate buffered saline (PBS), minced, rinsed to remove the red blood cells, and resuspended in trypsin/EDTA solution. The tissue suspension was incubated at 37° C. and gently agitated to disperse the cells, which were collected by centrifugation. Cells were resuspended in 4 ml Clinical Medium and placed in a 25 cm^2 flask and incubated at 37° C. in a humidified CO2 incubator for 24 h. The media was then replaced with fresh Clinical Medium and the cell growth was monitored daily until a confluent monolayer had formed. The HFF cells were then expanded through serial passages in standard growth medium of MEM with Earl's salts supplemented with 10% FBS, L-glutamine, penicillin, and gentamycin.
Akata cells were obtained from Louisiana State University, Baton Rouge, LA. The HCMV strain AD169 was obtained from the American Type Culture Collection (ATCC, Manassas, VA). Akata cells latently infected with EBV were obtained from Louisiana State University, Baton Rouge, LA.
Each experiment that evaluates the antiviral activity of compounds includes both positive and negative control compounds to ensure the performance of each assay. Concurrent assessment of cytotoxicity was also performed for each study in the same cell line and with the same compound exposure.
Assays were performed in monolayers as described.37 Cells were seeded in 384 well plates and incubated for 24 h to allow the formation of confluent monolayers. Dilutions of test drug were prepared directly in the plates and the monolayers infected at a predetermined MOI based on virus used. After incubation, cytopathology was determined by the addition of CellTiter-Glo (CTG) reagent. […] Toxicity was measured using CTG as above.

CC(C)C(=O)OCC1=C[C@@H](O)[C@H](n2ccc(N)nc2=O)O1 [Compound 8, 3′-Deoxy-3′,4′-didehydro-5′-O-isobutyroyl-cytidine]
EC50 (Human betaherpesvirus 5, AD169, HFF, approximate, read-out: EC50 against HCMV): ~20 nM | EC50 (Human betaherpesvirus 5, AD169 strain in HFF cells, Table 1, read-out: HCMV EC50): 20 nM
